In ChEMBL document CHEMBL5653610, “The novel phosphodiesterase 10A inhibitor THPP-1 has antipsychotic-like effects in rat and improves cognition in rat and rhesus monkey” (Neuropharmacology, 2013):
Calls of active or inactive are those of the source. The rule behind the calls is not given here.

Tests used:
[1] = Protein binding in orally dosed rat plasma after 2 hrs by UPLC-MS analysis; type: ADME, organism-based; conditions: route po, read-out: PPB (converted)
Rattus norvegicus [2] = assay: Effect on phosphorylation of proteins in other brain regions (prefrontal cortex and hippocampus) in Wistar Hannover rat at 3 to 30 mg/kg, po by Western blot analysis; type: functional, organism-based; conditions: dose 3-30 mg/kg
[3] = Total drug level in Wistar Hannover rat plasma at 3 mg/kg, po after 2 hrs by UPLC-MS analysis; type: ADME, organism-based
Rattus norvegicus [4] = assay: Effect on concentration of cyclic nucleotides in Wistar Hannover rat striatal tissues at 3 to 30 mg/kg, po by Western blot analysis; type: functional, organism-based; conditions: Striatum, dose 3-30 mg/kg
Rattus norvegicus [5] = assay: Antipsychotic activity in Wistar Hannover rat assessed as increase in recognition at 1 mg/kg, po dosed 90 mins before identical objects by novel object recognition test; type: functional, organism-based
[6] = Drug level in Wistar Hannover rat CSF at 1 mg/kg, po after 2 hrs by UPLC-MS analysis; type: ADME, organism-based, Cerebrospinal fluid; conditions: read-out: Drug uptake
[7] = Unbound drug level in Wistar Hannover rat plasma at 10 mg/kg, po after 2 hrs by UPLC-MS analysis; type: ADME, organism-based; conditions: in vivo
[8] = Total drug level in plasma of Wistar Hannover rat engaged in object retrieval detour task at 3 mg/kg, po dosed for 4 days prior to testing and on day 5 drug was administered orally 2 h prior to testing and measured after 4 hrs by UPLC-MS analysis; type: ADME, organism-based; conditions: time 5 day
[9] = Unbound drug level in plasma of Wistar Hannover rat engaged in object retrieval detour task at 3 mg/kg, po dosed for 4 days prior to testing and on day 5 drug was administered orally 2 h prior to testing and measured after 4 hrs by UPLC-MS analysis; type: ADME, organism-based; conditions: in vivo, 120 h, time 5 day
[10] = Total drug level in Wistar Hannover rat plasma at 1 mg/kg, po after 2 hrs by UPLC-MS analysis; type: ADME, organism-based
[11] = Total drug level in Wistar Hannover rat plasma at 10 mg/kg, po after 2 hrs by UPLC-MS analysis; type: ADME, organism-based
[12] = Bioavailability in orally dosed rhesus monkey after 4 hrs by UPLC-MS analysis; type: ADME, organism-based, Macaca mulatta; conditions: in vivo, route po
[13] = Protein binding in orally dosed dog plasma after 2 hrs by UPLC-MS analysis; type: ADME, organism-based, Canis lupus familiaris; conditions: route po, read-out: PPB (converted)
[14] = Mean drug level in plasma of Wistar Hannover rat at 10 mg/kg, po dosed as single dose after 4 hrs by UPLC-MS analysis; type: ADME, organism-based
[15] = Clearance in orally dosed rat after 2 hrs by UPLC-MS analysis; type: ADME, organism-based; conditions: in vivo, route po
Rattus norvegicus [16] = assay: In-vivo increase of CREB phosphorylation in membrane fraction of Wistar Hannover rat striatal tissues at 10 mg/kg, po after 2 hrs by Western blot analysis relative to control; type: functional, Striatum
[17] = Half life in orally dosed rhesus monkey after 4 hrs by UPLC-MS analysis; type: ADME, organism-based, Macaca mulatta; conditions: in vivo, route po
Rattus norvegicus [18] = assay: In-vivo increase of GluR1 S845 phosphorylation in membrane fraction of Wistar Hannover rat striatal tissues at 30 mg/kg, po after 2 hrs by Western blot analysis relative to control; type: functional, Striatum
[19] = target: T1, cAMP and cAMP-inhibited cGMP 3',5'-cyclic phosphodiesterase 10A (Rattus norvegicus, UniProt Q9QYJ6); assay: Inhibition of rat PDE10A2 assessed as inhibition of cAMP hydrolysis by fluorescence polarization assay
T1 sequence (Q9QYJ6 whole entry): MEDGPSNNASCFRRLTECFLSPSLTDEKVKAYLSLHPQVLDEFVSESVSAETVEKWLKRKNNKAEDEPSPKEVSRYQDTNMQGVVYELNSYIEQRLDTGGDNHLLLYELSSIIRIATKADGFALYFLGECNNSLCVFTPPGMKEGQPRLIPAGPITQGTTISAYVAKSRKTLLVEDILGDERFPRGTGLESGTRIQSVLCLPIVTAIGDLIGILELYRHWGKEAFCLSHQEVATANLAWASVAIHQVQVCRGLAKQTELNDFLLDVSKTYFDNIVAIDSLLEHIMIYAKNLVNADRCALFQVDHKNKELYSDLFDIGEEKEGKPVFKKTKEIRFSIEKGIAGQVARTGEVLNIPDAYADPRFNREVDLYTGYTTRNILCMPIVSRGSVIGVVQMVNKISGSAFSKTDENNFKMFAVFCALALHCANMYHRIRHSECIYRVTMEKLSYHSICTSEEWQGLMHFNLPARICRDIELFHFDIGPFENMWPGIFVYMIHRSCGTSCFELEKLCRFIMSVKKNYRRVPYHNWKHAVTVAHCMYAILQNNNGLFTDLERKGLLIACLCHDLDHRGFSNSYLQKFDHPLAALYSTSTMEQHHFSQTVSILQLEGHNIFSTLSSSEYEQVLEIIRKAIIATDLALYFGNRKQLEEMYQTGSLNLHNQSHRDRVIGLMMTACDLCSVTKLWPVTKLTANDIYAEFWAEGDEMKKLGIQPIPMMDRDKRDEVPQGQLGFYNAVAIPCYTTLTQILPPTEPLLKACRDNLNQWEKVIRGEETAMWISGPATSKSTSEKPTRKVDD

[20] = Unbound drug level in plasma of Wistar Hannover rat engaged in object retrieval detour task at 10 mg/kg, po dosed for 4 days prior to testing and on day 5 drug was administered orally 2 h prior to testing and measured after 4 hrs by UPLC-MS analysis; type: ADME, organism-based; conditions: in vivo, 120 h, time 5 day
[21] = Total drug level in Wistar Hannover rat plasma at 0.3 mg/kg, po after 2 hrs by UPLC-MS analysis; type: ADME, organism-based
Rattus norvegicus [22] = assay: Antipsychotic activity in Wistar Hannover rat assessed as reduction in MK-801-induced psychomotor activity at 1.5 to 4.5 mg/kg, po dosed 120 mins before MK-801 challenge and measured after 180 mins; type: functional, organism-based; conditions: dose 1.5-4.5 mg/kg, time 300.0 min
[23] = Half life in orally dosed dog after 2 hrs by UPLC-MS analysis; type: ADME, organism-based, Canis lupus familiaris; conditions: in vivo, route po
Rattus norvegicus [24] = assay: Effect on total levels of GluR1 protein in membrane fraction of Wistar Hannover rat striatal tissues at 3 to 30 mg/kg, po by Western blot analysis; type: functional, organism-based; conditions: Striatum, dose 3-30 mg/kg
Rhesus monkey = assay: Antipsychotic activity in rhesus monkey assessed as blocking of ketamine impaired performance on difficult trials at 3 mg/kg, po dosed for 4 days prior to testing and on day 5 drug was administered orally 2 h prior to testing by object retrieval detour task; type: functional, organism-based; conditions: Macaca mulatta, time 5.0 day
[25] = Clearance in orally dosed dog after 2 hrs by UPLC-MS analysis; type: ADME, organism-based, Canis lupus familiaris; conditions: in vivo, route po
Rattus norvegicus [26] = assay: Reduction in object exploration in Wistar Hannover rat at 1 mg/kg, po dosed 90 mins before identical objects by novel object recognition test; type: functional, organism-based

Which results are given for `COCCOc1nc(-c2ccc(Cl)nc2)nc2c1CN(C(=O)c1ncn3ccccc13)CC2` [THPP-1]?
fraction unbound at 2 h [1]: 0.018; Activity (Rattus norvegicus [2]): inactive; concentration at 2 h [3]: 745 nM; Activity (Rattus norvegicus [4]): inactive; Activity (Rattus norvegicus [5]): Active; concentration at 2 h [6]: 4.2 nM; Cp(f) [7]: 23.8 nM; concentration at 120 h [8]: 592 nM; Cp(f) [9]: 7 nM; concentration at 2 h [10]: 270 nM; concentration at 2 h [11]: 1320 nM; bioavailability [12]: 31%; fraction unbound at 2 h [13]: 0.03; concentration at 4 h [14]: 1530 nM; CL/F [15]: 6 mL/min/kg; fold change (FC) (Rattus norvegicus [16]): 2.3; half-life [17]: 1.4 h; fold change (FC) (Rattus norvegicus [18]): 9.5; Ki [19]: 1.3 nM; Cp(f) [20]: 19 nM; concentration at 2 h [21]: 117 nM; Activity (Rattus norvegicus [22]): Dose-Dependent Effect; half-life [23]: 7.2 h; Activity (Rattus norvegicus [24]): inactive; Activity (Rhesus monkey): inactive; CL/F [25]: 3.8 mL/min/kg; Activity (Rattus norvegicus [26]): Active
